Test results as given in PubChem BioAssay (NCI).
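Where inhibition never reached the appropriate level, the endpoint shown equals the highest concentration tested. Otherwise, values were interpolated linearly from a five-concentration, 48-hour dose response in 96-well plates. GI50 marks 50% less growth. TGI denotes the concentration required for complete inhibition of growth.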

Tests used:
Assay in all cases: growth of human tumour cells (NCI), 48 h
[1] = test system: SK-MEL-2 melanoma
[2] = test system: COLO 205 colon
[3] = test system: RPMI-8226 leukemia
[4] = test system: HOP-62 NSCLC
[5] = test system: LOX IMVI melanoma
[6] = test system: NCI-H23 lung
[7] = test system: SNB-75 CNS
[8] = test system: OVCAR-5 ovarian
[9] = test system: MOLT-4 leukemia
[10] = test system: OVCAR-4 ovarian

O=S(=O)(F)Cc1ccccc1
TGI [1]: > 100 µM | TGI [2]: > 100 µM | TGI [3]: > 100 µM | TGI [4]: > 100 µM | TGI [5]: > 100 µM | TGI [6]: > 100 µM | TGI [7]: > 100 µM | TGI [8]: > 100 µM | TGI [9]: > 100 µM | TGI [10]: > 100 µM

CC(=O)CC[N+](C)(C)C
TGI [1]: 64.4 µM | TGI [2]: 17.5 µM | TGI [3]: 26 µM | TGI [4]: > 100 µM | TGI [5]: 37.8 µM | TGI [6]: 59.6 µM | TGI [7]: 70.3 µM | TGI [8]: 67.6 µM | TGI [9]: 24.7 µM | TGI [10]: 30.2 µM

COc1ccc(CCN2CCCn3c2nc2ccccc2c3=O)cc1
GI50 [2]: 0.0555 µM | TGI [2]: 1.13 µM | GI50 [3]: 0.353 µM | TGI [3]: > 100 µM | GI50 [4]: 0.084 µM | TGI [4]: > 61.8 µM | GI50 [5]: 0.0762 µM | TGI [5]: > 100 µM | GI50 [6]: 0.232 µM | TGI [6]: > 83.9 µM | GI50 [8]: 0.95 µM | TGI [8]: > 100 µM | GI50 [9]: 0.0779 µM | TGI [9]: > 100 µM | GI50 [10]: 0.353 µM | TGI [10]: > 100 µM

CC(=O)OC1(Sc2ccccc2)CC2[C@H]3COC(C)(C)O[C@H]3CC[C@@]2(C)CC1=O (stereo not given in full)
TGI [1]: > 100 µM | TGI [2]: > 100 µM | TGI [3]: 69.7 µM | TGI [6]: > 100 µM | TGI [7]: 81.4 µM | TGI [8]: > 100 µM | TGI [9]: > 100 µM | TGI [10]: > 100 µM

O=C(CSSCC(=O)c1ccc(Cl)cc1)c1ccc(Cl)cc1
GI50 [1]: 3.8 µM | TGI [1]: 15.1 µM | GI50 [2]: 14.2 µM | TGI [2]: 29.8 µM | GI50 [3]: 3.2 µM | TGI [3]: 12.3 µM | GI50 [4]: 5.03 µM | TGI [4]: 21.7 µM | GI50 [5]: 2.6 µM | TGI [5]: 8.2 µM | GI50 [6]: 8.22 µM | TGI [6]: 30.3 µM | GI50 [7]: 6.62 µM | TGI [7]: 21.4 µM | GI50 [8]: 5.83 µM | TGI [8]: 21.5 µM | GI50 [9]: 3.28 µM | TGI [9]: > 100 µM | GI50 [10]: 18.3 µM | TGI [10]: 93.9 µM

Cc1nc2ccccc2c(=O)n1/N=C(\N=Nc1ccc(Cl)cc1)c1cccc(-c2ccco2)c1
TGI [2]: 89.4 µM | TGI [3]: > 100 µM | TGI [4]: 62.6 µM | TGI [5]: > 100 µM | TGI [6]: 65.2 µM | TGI [9]: > 100 µM

O=[N+]([O-])c1ccc(Sc2cccc[n+]2[O-])c2nonc12
GI50 [1]: 13.5 µM | TGI [1]: 36.3 µM | GI50 [2]: 0.949 µM | TGI [2]: 2.51 µM | GI50 [3]: 2.12 µM | TGI [3]: > 100 µM | GI50 [4]: 28 µM | TGI [4]: > 56.4 µM | GI50 [5]: 3.28 µM | TGI [5]: 11.7 µM | GI50 [6]: 7.97 µM | TGI [6]: 26.8 µM | GI50 [7]: 11.1 µM | TGI [7]: 39.6 µM | GI50 [8]: 4.32 µM | TGI [8]: 17.9 µM | GI50 [10]: 3.61 µM | TGI [10]: 13.6 µM

S=C1SCC2CCCN12 (stereo not given)
TGI [1]: > 100 µM | TGI [2]: > 100 µM | TGI [3]: > 100 µM | TGI [4]: > 100 µM | TGI [5]: > 100 µM | TGI [7]: > 100 µM | TGI [8]: > 100 µM | TGI [9]: > 100 µM | TGI [10]: > 100 µM

Cc1c(C)c2cc3c(=O)c(CCl)coc3c(C)c2oc1=O
TGI [1]: > 100 µM | TGI [2]: > 100 µM | TGI [3]: > 100 µM | TGI [4]: > 100 µM | TGI [5]: > 100 µM | TGI [6]: > 100 µM | TGI [7]: > 100 µM | TGI [8]: > 100 µM | TGI [9]: > 100 µM

N.N.N.N.N#N.N#N.[Cl-].[Os+6]
GI50 [1]: > 100 µM | TGI [1]: > 100 µM | GI50 [2]: > 100 µM | TGI [2]: > 100 µM | GI50 [3]: > 100 µM | TGI [3]: > 100 µM | GI50 [5]: > 100 µM | TGI [5]: > 100 µM | GI50 [6]: > 100 µM | TGI [6]: > 100 µM | GI50 [7]: > 100 µM | TGI [7]: > 100 µM | GI50 [8]: > 100 µM | TGI [8]: > 100 µM | GI50 [10]: > 100 µM | TGI [10]: > 100 µM

O=C(Nc1cc(Cl)c(I)c(Cl)c1)C(F)(F)F
TGI [2]: 53.9 µM | TGI [3]: > 100 µM | TGI [4]: > 100 µM | TGI [6]: 70.8 µM | TGI [7]: > 100 µM | TGI [8]: 83 µM | TGI [9]: 82.7 µM | TGI [10]: > 100 µM

COc1ccc2c(c1OC)C(=O)C2
TGI [1]: > 100 µM | TGI [2]: > 100 µM | TGI [3]: > 100 µM | TGI [4]: > 100 µM | TGI [5]: > 100 µM | TGI [6]: > 100 µM | TGI [7]: > 100 µM | TGI [9]: > 100 µM | TGI [10]: > 100 µM

COc1ccc(/C=C\c2cc(OC)c(OC)c(OC)c2)cc1NC(=O)/C=C/c1ccc(OC)c(OC)c1
GI50 [1]: 5.51 µM | TGI [1]: > 100 µM | GI50 [2]: 2.05 µM | TGI [2]: 10.9 µM | GI50 [3]: 3.95 µM | TGI [3]: > 100 µM | GI50 [4]: 5.42 µM | TGI [4]: > 100 µM | GI50 [5]: 7.41 µM | TGI [5]: > 100 µM | GI50 [6]: 16.5 µM | TGI [6]: > 100 µM | GI50 [8]: 7.69 µM | TGI [8]: > 100 µM | GI50 [9]: 6.66 µM | TGI [9]: > 100 µM | GI50 [10]: 8.01 µM | TGI [10]: > 100 µM

O=C(O)CCCN1C(=O)/C(=C/C(Cl)=C/c2ccccc2)SC1=S
GI50 [1]: 2.47 µM | TGI [1]: 7.61 µM | GI50 [2]: 1.9 µM | TGI [2]: 4.49 µM | GI50 [4]: 2.94 µM | TGI [4]: 10.5 µM | GI50 [5]: 0.383 µM | TGI [5]: 1.38 µM | GI50 [6]: 2.34 µM | TGI [6]: 6.27 µM | GI50 [7]: 1.23 µM | TGI [7]: 4.33 µM | GI50 [8]: 2.48 µM | TGI [8]: 5.78 µM | GI50 [9]: 0.591 µM | TGI [9]: 11.9 µM | GI50 [10]: 2.77 µM | TGI [10]: 14.3 µM

CN(c1cccc(C(=O)O)c1)c1cc(O/N=[N+](\[O-])N(C)C)c([N+](=O)[O-])cc1[N+](=O)[O-]
GI50 [1]: > 100 µM | TGI [1]: > 100 µM | GI50 [2]: > 100 µM | TGI [2]: > 100 µM | GI50 [3]: > 100 µM | TGI [3]: > 100 µM | GI50 [4]: 46.8 µM | TGI [4]: > 100 µM | GI50 [5]: 47.6 µM | TGI [5]: > 100 µM | GI50 [6]: > 100 µM | TGI [6]: > 100 µM | GI50 [7]: > 100 µM | TGI [7]: > 100 µM | GI50 [8]: > 100 µM | TGI [8]: > 100 µM | GI50 [9]: > 100 µM | TGI [9]: > 100 µM

CC(C)(C)C1=CC(=N/N=c2\scc(-c3ccccc3)n2Cc2ccccc2)C=C(C(C)(C)C)C1=O
TGI [1]: > 100 µM | TGI [2]: > 100 µM | TGI [4]: > 100 µM | TGI [5]: > 100 µM | TGI [6]: > 100 µM | TGI [7]: > 100 µM | TGI [8]: > 100 µM | TGI [9]: > 100 µM | TGI [10]: > 100 µM

N#CN1CC[C@@H]2CC3(CCC2C1)OCCO3 (stereo not given in full)
TGI [1]: > 100 µM | TGI [2]: > 100 µM | TGI [3]: > 100 µM | TGI [4]: > 100 µM | TGI [6]: > 100 µM | TGI [7]: > 100 µM | TGI [8]: > 100 µM | TGI [9]: > 100 µM | TGI [10]: > 100 µM

COCN1COCN(C)C1=O
TGI [1]: > 100 µM | TGI [2]: > 100 µM | TGI [3]: > 100 µM | TGI [4]: > 100 µM | TGI [5]: > 100 µM | TGI [6]: > 100 µM | TGI [7]: > 100 µM | TGI [8]: > 100 µM | TGI [10]: > 100 µM
